This note sets out measurements from paper PMC10933344, “A lncRNA Dleu2-encoded peptide relieves autoimmunity by facilitating Smad3-mediated Treg induction” (EMBO Reports, 2024).

Series [1] has as its system CD4+ T cells. In words: Subcellular distribution by confocal immunofluorescence microscopy. It counts as cell-based. Conditions: 6-FAM conjugate, 10 μM, 4 h, mouse CD4+ T cells, n = 3. As to the method:
(§1) Figure EV1 Dleu2-17aa enters CD4^+ T cells. (A) Representative histogram of Dleu2-17aa (10 μM) uptake in Jurkat and EL4 cell lines (n = 3). (B) Flow cytometry plots showing FAM-Dleu2-17aa^+ cells gated on CD4^+ T cells after treatment with increasing concentrations of FAM-Dleu2-17aa for 72 h (n = 3). (C) Histograms showing fluorescence intensity of FAM-Dleu2-17aa in CD4^+ T cells after treatment with increasing concentrations of FAM-Dleu2-17aa for 72 h. Gray filled: untreated control (n = 3). (D) Immunofluorescence imaging of FAM-Dleu2-17aa (10 μM) penetration by CD4^+ T cells isolated from WT mouse spleen (n = 3). Scale bars: 20 μm. Data information: n indicates biological replicate.
Mouse CD4^+ T cells and EL4 cells were seeded on glass coverslips and incubated with FAM-Dleu2-17aa (10 µM) for 4 h. Cultured cells were washed three times in PBS and fixed with 4% PFA for 10 min at RT, then incubated in Blocking Buffer (1 × PBS/5% BSA/0.3% Triton X-100) for 1 h. After being washed in PBS and air drying, the coverslips were mounted with DAPI (1:1000; Thermo Fisher Scientific). Images were acquired with Leica TCS SP8 laser scanning confocal microscope.

Series [2] relates to CD4+ T cells. Put plainly: Uptake of FAM-labeled peptide, flow cytometry. Format: cell-based. Conditions: 6-FAM conjugate, 72 h, mouse CD4+ T cells, n = 3. As to the method: as §1
(In flow cytometry, cells or beads pass a laser one at a time.)

In a further series the test system is spinal cord of EAE mice. Put plainly: Immunostaining of spinal cord sections of treated EAE mice. It counts as in vivo, mouse. An excerpt:
We then analyzed the T cell subsets in the CNS of WT and KO mice after EAE induction to clarify the inflammatory responses. […] To investigate if Dleu2-17aa affects CNS pathology in EAE, we performed immunostaining of spinal cord sections on EAE mice treated with Dleu2-17aa or scrPEP. […] Neuronal staining was also unaffected by Dleu2-17aa, indicating no significant alterations in CNS inflammation.
DAPI Dleu2-17aa CD4 DAPI Dleu2-17aa Iba1 DAPI Dleu2-17aa GFAP DAPI Dleu2-17aa NeuN
Appendix Fig S7: Effects of Dleu2-17aa on CNS pathology.
Representative immunofluorescence images showing Dleu2-17aa and CD4+ T cells (CD4),
microglia (Iba1), astrocyte (GFAP), and neuron (NeuN) staining in spinal cords of WT and KO EAE […]

The subject of another series is EL4 cells. In words: Uptake of FAM-labeled peptide, flow cytometry. Format: cell-based, mouse. The settings on record: 6-FAM conjugate, 10 μM, n = 3. The method, then: as §1
(§2) The mouse T cell line EL4 (TIB-39) cells and fibroblast cell line NIH/3T3 (CRL-1658) cells were cultured in high-glucose DMEM (Thermo Fisher Scientific) supplemented with 10% fetal bovine serum (FBS; Gibco). The human T cell line Jurkat (TIB-152) cells were cultured in RPMI 1640 medium (Thermo Fisher Scientific) supplemented with 10% FBS. All lines were maintained at 37 °C in a humidified 5% CO2 atmosphere.

In another series the test system is Jurkat cells. Put plainly: Uptake of FAM-labeled peptide, flow cytometry. Format: cell-based, human. Conditions: 6-FAM conjugate, 10 μM, n = 3. The method, then: as §1, §2
A further series deals with naive CD4+ T cells. Put plainly: In vitro iTreg differentiation (Foxp3+ of CD4+ cells). Format: cell-based, mouse. Conditions: 10 μM, 72 h, n = 4. As to the method: C57BL/6 mice were sacrificed, and their spleens and peripheral lymph nodes were removed and gently dissociated into single-cell suspensions. Naive T cells were isolated using the Mouse CD4 Naive T Cell Isolation Kit (BioLegend, Stem Cell, or Thermo Fisher Scientific). Flow cytometry verified that the purity (CD4^+CD25^−CD62L^hi) of the enriched subpopulation was typically higher than 95%. All T cells were cultured using RPMI-1640 medium (Gibco) supplemented with 10% heat-inactivated fetal bovine serum (Gibco), 2 mM L-glutamine (Gibco), 10,000 units/mL of penicillin, 10,000 µg/mL of streptomycin, and 25 µg/mL of Gibco Amphotericin B (Thermo Fisher Scientific), 10 mM HEPES (Gibco), 1 mM Sodium pyruvate, MEM Non-Essential Amino Acids (Life Technologies) and 55 μM β-mercaptoethanol (Gibco). 0.1 million naive CD4^+ T cells were activated with plate-coated anti-CD3 (2.5 μg/ml; BD Biosciences) and soluble anti-CD28 (2 μg/ml; BD Biosciences) antibodies. The Th1 cell differentiation condition included recombinant murine (rm)IL-12 (10 ng/ml, PeproTech) and anti-IL-4 (10 μg/ml, BioLegend). The Th17 cell differentiation condition included rmIL-6 (10 ng/ml, PeproTech), rmTGF-β1 (5 ng/ml, PeproTech), rmIL-23 (10 ng/ml, PeproTech), anti-IL-4 (5 μg/ml, BioLegend) and anti-IFN-γ (10 μg/ml, eBioscience). The inducible T regulatory cell (iTreg) differentiation condition included rmTGF-β (5 ng/ml, PeproTech). 0.1 million naive CD8^+ T cells were activated with plate-coated anti-CD3 (10 μg/ml; BD Biosciences) and plate-coated anti-CD28 (10 μg/ml; BD Biosciences) antibodies. The Tc17 cell differentiation condition included rmIL-6 (10 ng/ml, PeproTech), rmTGF-β1 (2 ng/ml, PeproTech), rmIL-23 (25 ng/ml, PeproTech), rmIL1-β (5 ng/ml, PeproTech), and anti-IFN-γ (10 μg/ml, eBioscience). The Tc1 cell differentiation condition included rmIL-2 (5 ng/ml, PeproTech) and rm IL-12 (1 ng/ml, PeproTech). Different concentrations of Dleu2-17aa and scrPEP (Genscript) were added to the T cell culture from the beginning unless specified. Cells were cultured in U-bottom 96-well plates for 72 h and detected by flow cytometry.
For in vitro mouse T cell differentiation, after 72 h of induction, cells were activated for 4–6 h at 37 °C with the Cell Stimulation Cocktail (Thermo Fisher Scientific) if intracellular cytokine staining is needed, surface markers were stained in FACS buffer (PBS containing 2% FBS) for 30 min at 4 °C protected from light. Cells were then fixed and permeabilized with the Foxp3 Staining Buffer Set (eBioscience) or BD Cytofix/Cytoperm (BD Biosciences) and were stained with fluorescent antibodies. After washing, stained cells were assayed with an LSRFortessa (BD) flow cytometer, and data were analyzed with FlowJo software. Single-cell suspensions from EAE mouse spleen or CNS (day 16 post-immunization) were derived through mechanical separation and passage through a 70-μm filter (Fisherbrand) and analyzed using similar steps. For flow cytometry, antibodies against CD4 (clone GK1.5, 1:200), CD62L (clone MEL-14, 1:200), CD44 (clone IM7, 1:200), CD25 (clone PC61.5, 1:200), IL-17A (clone eBio17B7, 1:200), IFN-γ (clone XMG1.2, 1:200), FoxP3 (clone FJK-16s, 1:200), CD184 (clone 2B11/CXCR4, 1:100), CD152 (clone BNI3 1:100) and CD357 (clone DTA-1 1:100) were from eBioscience, CD3 (clone 145-2C11, 1:200) was from Biolegend and TGFBI (1:100) were from proteintech. For Dleu2-17aa expression detection, C57BL/6 mice were sacrificed, and their spleens were removed and gently dissociated into single-cell suspensions. An Fc blocker was used to reduce potential nonspecific antibody staining caused by IgG. Surface staining was performed using monoclonal antibodies against CD45 (clone 30-F11), CD3 (clone 145-2C11), CD19 (clone SJ25C1), CD11c (clone N418), MHCII (clone M5/114.15.2), F4/80 (clone BM8) all at a dilution of 1:200 (from Biolengend) followed by fixation and permeabilization of the nuclear membrane BD Cytofix/Cytoperm (BD Biosciences). […]

Where no end group is shown, it is not given here.

MLGRRARRRGRGRRRPA [Dleu2-17aa]: the subcellular distribution entry in the series on CD4+ T cells [1] is recorded as “predominantly localized in the nucleus”. Also, the “penetration of the peptide” value in the series on CD4+ T cells [2] (0-50 μM) is listed as “dose-dependent penetration”. Also, in the series on CD4+ T cells [2], the “concentration of maximal penetration” value lay within 25 to 50 µM. Besides, in the series with spinal cord of EAE mice, the colocalization with astrocytes result is on record as “limited colocalization”, the colocalization with microglia entry is given as “some colocalization”, the colocalization with neurons result is on record as “minimal colocalization” and the “presence in CD4+ T cells of spinal cord” value was “expressed in all the CD4^+ T cell”. Moreover, in the series with EL4 cells, the penetrating ability entry is on record as “capacity to penetrate into different types of T cells”. The penetrating ability result in the series with Jurkat cells is recorded as “capacity to penetrate into different types of T cells”.

Take “MGRGALRRGRGRARRRGPRRGGTPG [DLEU2-25aa, 25 amino acid micropeptide of human DLEU2 transcripts]”: the “significance of CD4+Foxp3+ (%) vs PBS” value in the series on naive CD4+ T cells (two-tailed Student's t-test) is recorded as “✱✱ (**P<0.01)”. In the series with naive CD4+ T cells (vs PBS), the “effect on mouse iTreg cell differentiation” value is “exhibited similar features in promoting mouse iTreg cell differentiation”.
